Here are results for nine molecules from PMC7765930, “Antiproliferative Phenanthrenes from Juncus tenuis: Isolation and Diversity-Oriented Semisynthetic Modification” (Molecules, 2020).

In data set [1] the test system is MRC-5 human embryonal lung fibroblast cell line. As to the kind of experiment: MTT antiproliferative assay, MRC-5. The data set is classed as cell-based. The note with it: 100–0.19 μM, non-tumoral cells; for IC50: read-out: IC50 (µM) ± SD MRC-5. The method, then: Breast cancer cell line MCF-7 (ATCC® HTB-22) and the drug-resistant subline of the human breast cancer MCF-7 (ECACC 86012803; KCR) were purchased from LGC Promochem (Teddington, UK). Both cell lines were cultured in Eagle’s Minimal Essential Medium (EMEM, containing 4.5 g/L glucose) supplemented with a non-essential amino acid mixture, a selection of vitamins, and 10% heat-inactivated fetal bovine serum. In every third passage, 0.56 µg/mL doxorubicin was added to the medium, in order to maintain the ABCB1 (P-glycoprotein) expression in KCR cells. A2780 human ovarian cancer cell line (ECACC, European Collection of Authentical Cell Culture, Sigma Cat.no. 93112519) was purchased from Merck KGaA (Darmstadt, Germany). […] The human ovarian cancer cell lines were cultured in RPMI 1640 medium supplemented with 10% heat-inactivated fetal bovine serum. […] HeLa (ATCC® CCL-2™) human cervix carcinoma cell line was purchased from LGC Promochem (Teddington, UK). The cells were cultured in Eagle’s Minimal Essential Medium (EMEM, containing 4.5 g/L glucose) supplemented with a non-essential amino acid mixture, a selection of vitamins, and 10% heat-inactivated fetal bovine serum. MRC-5 human embryonal lung fibroblast cell line (ATCC® CCL-171) was purchased from LGC Promochem, Teddington, UK. The cell line was cultured in Eagle’s Minimal Essential Medium (EMEM, containing 4.5 g/L glucose) supplemented with a non-essential amino acid mixture, a selection of vitamins, and 10% heat-inactivated fetal bovine serum. HTB-26 breast adenocarcinoma cell line was purchased from LGC Promochem, Teddington, UK. The cell line was cultured in RPMI 1640 medium supplemented with 10% heat-inactivated fetal bovine serum. T-47D (ATCC® HTB-133™) ductal carcinoma cell line was purchased from LGC Promochem, Teddington, UK. The cells were cultured in RPMI 1640 medium supplemented with 10% heat-inactivated fetal bovine serum, 2 mM L-glutamine, 1 mM Na-pyruvate, and 100 mM Hepes. All of the cells were incubated at 37 °C, in a 5% CO2 and 95% air atmosphere.
The antiproliferative effect of the compounds was determined on human breast (MCF-7, KCR, T47D, and HTB-26), cervical (HeLa), and ovarian (A2780 and A2780cis) cancer cells, and on MRC-5 (human embryonic lung fibroblast) cell lines. The adherent cells were cultured in 96-well flat-bottomed microtiter plates, using EMEM supplemented with 10% heat-inactivated fetal bovine serum or RPMI 1640 supplemented with 10% heat-inactivated fetal bovine serum, respectively. The density of the cells was adjusted to 6 × 10^3 cells in 100 μL per well, the cells were seeded for 24 h at 37 °C, with 5% CO2, and then the medium was removed from the plates, and fresh medium (100 μL per well) was added to the cells. The effects of increasing concentrations of compounds on cell proliferation were tested in 96-well flat-bottomed microtiter plates. The compounds were diluted in the appropriate medium; the dilutions of compounds were performed in separate plates and then added to the cells. The starting concentration of the compounds was 100 μM, and two-fold serial dilution was performed (concentration range: 100–0.19 μM). The culture plates were incubated at 37 °C for 72 h; at the end of the incubation period, 20 μL of MTT (thiazolyl blue tetrazolium bromide, Sigma) solution (from a stock solution of 5 mg/mL) was added to each well. After incubation at 37 °C for 4 h, 100 μL of sodium dodecyl sulfate (SDS) (Sigma) solution (10% in 0.01 M HCI) was added to each well, and the plates were further incubated, at 37 °C, overnight. Cell growth was determined by measuring the optical density (OD) at 540/630 nm, with a Multiscan EX ELISA reader (Thermo Labsystems, Cheshire, WA, USA). Mean IC50 values were obtained by best-fitting the dose-dependent inhibition curves in GraphPadPrism5 program (GraphPad Software version 5.00 for Windows, San Diego, CA, USA) from four parallel experiments for each cell line.
Background: Tetrazolium assays rely on reduction of a dye to a coloured formazan, in cell work by metabolically active cells.

Data set [2] concerns HeLa cells. Details: method as in PMID 30127296, PMID 31005716. Conditions: previously described, read-out: IC50, antiproliferative activity on HeLa cells; cited from earlier work.
In data set [3] the test system is normal skin fibroblasts CCD966SK. Set-up: method as in PMID 31005716. The note with it: even at higher concentrations; cited from earlier work.
Data set [4] concerns G2/M and subG1 cell cycle phase. Set-up: method as in PMID 31005716. Conditions: even at lower concentrations; cited from earlier work.
In data set [5] the test system is caspase-3. Details: method as in PMID 31005716. Conditions: cited from earlier work.
For data set [6], the system named is tubulin. Set-up: method as in PMID 31005716. Conditions: at 200 µM; cited from earlier work.

Read-outs that look alike come from different tables or passages of the source. A value given as a limit tells only on which side of the number the result lay.

Broadly, the IC50 is the midpoint of a concentration-inhibition curve. Regarding `N.N.[Cl][Pt][Cl]` [Cisplatin, cisplatin, reference compound], the IC50 in data set [1] (72 h) stood at 0.6 µM.

On to `C=CC1=C(C)C(=O)C=C2CCC3=C(C=CC(=O)C3(C)OC)C21OC` (centres unmarked) [Compound 1b], for which, in data set [1] (72 h), the “IC50 (µM) ± SD MRC-5” value is given as “did not show an antiproliferative effect”. The IC50 in data set [1] (Homo sapiens, MRC5, 72 h) was greater than 100 µM.

Regarding `C=CC1=C(C)C(=O)C=C2CCC3=C(C=CC(=O)C3(C)OCC)C21OCC` (centres unmarked) [Compound 2a], the “IC50 (µM) ± SD MRC-5” value in data set [1] (72 h) was “did not show an antiproliferative effect”. Moreover, the 50% inhibitory concentration (IC50) in data set [1] (Homo sapiens, MRC5, 72 h) is greater than 100 µM.

Regarding `C=CC1=C(C)C(=O)C=C2CCC3=C(C=CC(=O)C3(C)OCC)C21OCC` (centres unmarked) [Compound 2b], the concentration for half-maximal inhibition (IC50) in data set [1] (72 h) was 57.7 ± 0.3 µM.

Consider `C=CC1=CC(=O)C=C2CCC3=C(C=CC(=O)C3(C)OC)C12OC` (centres unmarked) [Compound 3], for which the concentration for half-maximal inhibition (IC50) in data set [1] (Homo sapiens, MRC5, 72 h) was determined as 12.2 ± 0.2 µM.

As to `C=CC1=CC(=O)C=C2CCC3=C(C=CC(=O)C3(C)OCC)C12OCC` (centres unmarked) [Compound 4a], in data set [1] (Homo sapiens, MRC5, 72 h), the IC50 was 14.3 ± 0.5 µM.

In the case of `C=CC1=CC(=O)C=C2CCC3=C(C=CC(=O)C3(C)OCC)C12OCC` (centres unmarked) [Compound 4b], in data set [1] (72 h), the concentration for half-maximal inhibition (IC50) is 23.4 ± 1.3 µM.

For the molecule `C=Cc1cc(O)cc2c1-c1ccc(O)c(C)c1CC2` [effusol], the IC50 in data set [1] (Homo sapiens, MRC5, 72 h) is 60.1 ± 5.1 µM; in data set [2] it was 3.68 µM.

Consider `C=Cc1c(C)c(O)cc2c1-c1ccc(O)c(C)c1CC2` [juncusol], for which the IC50 in data set [1] (Homo sapiens, MRC5, 72 h) is 40.9 ± 2 µM; in data set [2], 0.95 µM. Besides, in data set [3], the “toxicity on normal skin fibroblasts CCD966SK” value is reported as “nontoxic”. Also, the “number of cells in the G2/M and subG1 cell cycle phase” value in data set [4] is given as “increased”. The caspase-3 activity entry in data set [5] was “significant and concentration-dependent increase”. For the same molecule, the tubulin polymerization entry in data set [6] was “decreased”.
